Results: ChEMBL document CHEMBL3616406, “Soluble epoxide hydrolase inhibitory activity of anthraquinone components from Aloe” (Bioorg Med Chem, 2015)
Activity calls are given as the source filed them. The rule behind the calls is not given here.

Key:
[1] = molecular target: T1, Bifunctional epoxide hydrolase 2 (Homo sapiens, UniProt P34913); test: Inhibition of sEH (unknown origin) using PHOME as substrate assessed as formation of 6-methoxy-2-naphthaldehyde measured during 1 hr by fluorescence photometric analysis
T1 sequence (P34913 whole entry): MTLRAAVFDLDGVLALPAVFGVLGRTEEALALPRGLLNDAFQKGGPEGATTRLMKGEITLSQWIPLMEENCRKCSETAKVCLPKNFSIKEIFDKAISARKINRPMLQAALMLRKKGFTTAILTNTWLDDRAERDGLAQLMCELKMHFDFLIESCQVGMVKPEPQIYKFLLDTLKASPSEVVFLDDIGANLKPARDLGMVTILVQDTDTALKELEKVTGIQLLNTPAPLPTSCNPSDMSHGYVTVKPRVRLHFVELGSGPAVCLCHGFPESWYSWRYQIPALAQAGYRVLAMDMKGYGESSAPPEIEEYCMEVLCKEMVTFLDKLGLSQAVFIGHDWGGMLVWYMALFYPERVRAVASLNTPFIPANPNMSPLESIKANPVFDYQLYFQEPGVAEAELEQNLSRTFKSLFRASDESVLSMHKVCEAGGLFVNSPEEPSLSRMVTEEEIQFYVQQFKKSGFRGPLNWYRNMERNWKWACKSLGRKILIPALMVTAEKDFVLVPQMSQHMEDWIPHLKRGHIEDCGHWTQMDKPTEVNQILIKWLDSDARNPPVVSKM

[2] = molecular target: T2, Bifunctional epoxide hydrolase 2 (Homo sapiens) (UniProt P34913); test: Mixed-type inhibition of sEH (unknown origin) using PHOME as substrate assessed as formation of 6-methoxy-2-naphthaldehyde measured during 30 mins by Lineweaver-Burk plot analysis
T2 sequence (whole entry): T1 sequence (P34913 whole entry)

[3] = molecular target: T1, Bifunctional epoxide hydrolase 2; test: Mixed-type inhibition of sEH (unknown origin) using PHOME as substrate assessed as formation of 6-methoxy-2-naphthaldehyde measured during 30 mins by Dixon plot analysis
[4] = molecular target: T2, Bifunctional epoxide hydrolase 2 (Homo sapiens); test: Inhibition of sEH (unknown origin) using PHOME as substrate assessed as formation of 6-methoxy-2-naphthaldehyde at 100 uM measured during 1 hr by fluorescence photometric analysis relative to control
[5] = molecular target: T1, Bifunctional epoxide hydrolase 2; test: Non-competitive inhibition of sEH (unknown origin) using PHOME as substrate assessed as formation of 6-methoxy-2-naphthaldehyde measured during 30 mins by Dixon plot analysis
[6] = molecular target: T2, Bifunctional epoxide hydrolase 2 (Homo sapiens); test: Non-competitive inhibition of sEH (unknown origin) using PHOME as substrate assessed as formation of 6-methoxy-2-naphthaldehyde measured during 30 mins by Lineweaver-Burk plot analysis

With Cc1cc(O)c2c(c1)[C@H]([C@@H]1O[C@H](CO)[C@@H](O)[C@H](O)[C@H]1O)c1cccc(O)c1C2=O the IC50 [1] was 15.6 µM, the inhibition [2] was “Active” and the Ki [3] was 0.2 µM. The inhibition [4] was 90.5%.
In the case of C[C@@H]1O[C@@H](OCc2cc(O)c3c(c2)[C@H]([C@@H]2OC[C@@H](O)[C@H](O)[C@H]2O)c2cccc(O)c2C3=O)[C@H](O)[C@H](O)[C@H]1O, the IC50 [1] is reported as 13.8 µM, the Ki [5] is reported as 0.8 µM and the inhibition [4] is reported as 87%. For the same compound, the inhibition [6] was “Active”.
O=C1c2c(O)cccc2C([C@@H]2O[C@H](CO)[C@@H](O)[C@H](O)[C@H]2O)c2cc(CO)cc(O)c21 (some centres not stated) [ALOIN] was tested, and the IC50 [1] was 37.4 µM, the inhibition [2] was “Active” and the Ki [3] was 57.3 µM. The inhibition [4] was 73.9%.
For C[C@@H]1O[C@@H](OCc2cc(O)c3c(c2)[C@H]([C@@H]2O[C@H](CO)[C@@H](O)[C@H](O)[C@H]2O)c2cccc(O)c2C3=O)[C@H](O)[C@H](O)[C@H]1O, the IC50 [1] was 20.2 µM, the inhibition [2] was “Active” and the Ki [3] was 2 µM. It also gave an inhibition [4] of 86.9%.
C[C@@H]1O[C@@H](OCc2cc(O)c3c(c2)[C@](O)([C@@H]2O[C@H](CO)[C@@H](O)[C@H](O)[C@H]2O)c2cccc(O)c2C3=O)[C@H](O)[C@H](O)[C@H]1O was tested, and the IC50 [1] was 12.5 µM, the inhibition [2] was “Active” and the Ki [3] was 10.4 µM. It also gave an inhibition [4] of 109%.
In the case of O=C1c2c(O)cccc2[C@@H]([C@@H]2O[C@H](CO)[C@@H](O)[C@H](O)[C@H]2O)c2cc(CO)cc(O)c21, the IC50 [1] is reported as 41.1 µM, the inhibition [2] is reported as “Active” and the Ki [3] is reported as 27.8 µM. It also gave an inhibition [4] of 62.8%.
O=C1c2cccc(O)c2C(=O)c2c(O)cc(CO)cc21 [ALOE-EMODIN] showed an IC50 [1] of 26.8 µM, a Ki [5] of 52.2 µM and an inhibition [4] of 79.9%. For the same compound, the inhibition [6] was “Active”.
Compound O=C1c2cc(CO)cc(O)c2C(=O)c2c1ccc([C@]1([C@@H]3O[C@H](CO)[C@@H](O)[C@H](O)[C@H]3O)c3cccc(O)c3C(=O)c3c(O)cc(CO)cc31)c2O has an IC50 [1] of 4.1 µM, a Ki [5] of 15.5 µM and an inhibition [4] of 93.1%. The inhibition [6] was “Active”.
